Experimental data from patent publication US20040137389A1, “Heat-developable light-sensitive material” (priority 2002, published 2004).

Assay: Difference between light absorption intensity before and after heat development (absorbance at 415 nm), Examples 1 and 2
Settings: A/B×100 (after/before heat development, silver iodide-free sample as base), development 24 seconds, Example 1
Protocol: (§1) Each sample was thermally developed with Fuji Medical Dry Laser Imager FM-DPL Model in which the temperatures of four panel heaters were set at 112° C., 118° C., 120° C. and 120° C., respectively and which the overall development time was set at 24 seconds.
Using a spectral photometer U-4100 (manufactured by Hitachi) equipped with an integrating sphere, the spectral absorbance of each sample was measured. […] The change rate of the absorbance at 415 nm of each of samples 11 to 20 before heat development and that after heat development was measured. Apart from the above samples, silver iodide-free sample was prepared, and the absorbance thereof at 415 nm was used as a base standard. The absorbance reduction rate of each sample was computed according to the formula mentioned below.
Absorbance reduction rate (%)=A/B×100
(§2) A=(absorbance of a sample after heat development)−(absorbance of a silver iodide-free sample after heat development)
(§3) B=(absorbance of the sample before heat development)−(absorbance of a silver iodide-free sample before heat development)
In the case of `CC(C)c1ccc2cnncc2c1` [6-isopropylphthalazine], the “Absorbance Change Rate (%)” value is reported as “may lower the absorption intensity”.

Assay: Measurement of acid dissociation constant pKa by potentiometric titration
Format: physicochemical
Settings: compound of formula (1) or (2); tetrahydrofuran/water (3/2), 25° C.; Table 2
Protocol: Using an automatic potentiometric titration meter, Kyoto Electronic Industry's AT-420, the acid dissociation constant (pKa) of the conjugate acid of the compound of formula (1) in a mixed solution of tetrahydrofuran and water (3/2) was measured at 25° C.
Using an automatic potentiometric titration meter, Kyoto Electronic Industry's AT-420, the acid dissociation constant (pKa) of the conjugate acid of the silver iodide complex-forming agent in a mixed solution of tetrahydrofuran and water (3/2) was measured at 25° C.
For `O=C(Nc1ccncc1)c1ccccc1` [Sample F-325], the “pKa of Conjugate Acid” value was 4.2. For `Cc1nnc(C)c(C)c1C` [Sample F-404], the “pKa of Conjugate Acid” value was 5.4. For `c1ccc(-c2ccnnc2)cc1` [Sample F-405], the “pKa of Conjugate Acid” value was 3.6.

Same assay, conditions: conjugate acid of the silver iodide complex-forming agent; tetrahydrofuran/water (3/2), 25° C.; Table 5
`O=C(Nc1ccncc1)c1ccccc1` [Sample F-325] showed a pKa of 4.2. With `Cc1nnc(C)c(C)c1C` [Sample F-404] the pKa was 5.4. For `c1ccc(-c2ccnnc2)cc1` [Sample F-405], the pKa was 3.6.

Same assay, conditions: conjugate acid of the silver iodide complex-forming agent; tetrahydrofuran/water (3/2), 25° C.; Table 6
With `O=C(Nc1ccncc1)c1ccccc1` [Sample F-325] the pKa was 4.2.

Same assay, conditions: conjugate acid of the silver iodide complex-forming agent; tetrahydrofuran/water (3/2), 25° C.; Table 8
Work on `O=C(Nc1ccncc1)c1ccccc1` [Sample F-325] yielded a pKa of 4.2. `Cc1nnc(C)c(C)c1C` [Sample F-404] gave a pKa of 5.4. In the case of `c1ccc(-c2ccnnc2)cc1` [Sample F-405], the pKa is reported as 3.6.

Same assay, conditions: conjugate acid; tetrahydrofuran/water (3/2), 25° C.; Table 1
In the case of `O=C(Nc1ccncc1)c1ccccc1` [Sample F-325], the “Compound of Formula (1) or (2) pKa” value is reported as 4.2.

Same assay, conditions: conjugate acid; tetrahydrofuran/water (3/2), 25° C.; Table 3
In the case of `O=C(Nc1ccncc1)c1ccccc1` [Sample F-325], the “Silver Iodide Complex-forming Agent pKa” value is reported as 4.2.

Same assay, conditions: tetrahydrofuran/water (3/2) mixed solution, compound of formula (1) or (2), 25° C., Table 2, read-out: pKa of Conjugate Acid
`c1cc2cnncc2s1` [Sample F-421] gave a pKa of 4.2.

Assay: Retention of absorbance at 415 nm after heat development, Examples 3 and 4
Settings: A/B×100 (after/before heat development), development 24 seconds, grain size 0.12 μm, Example 3
Protocol: as §1
Using a spectral photometer U-4100 (manufactured by Hitachi) equipped with an integrating sphere, the spectral absorbance of each sample was measured. The change rate of the absorbance at 415 nm of each sample before heat development and that after heat development was measured. Apart from the above samples, silver iodide-free sample was prepared, and the absorbance thereof at 415 nm was used as a base standard. The retention of absorbance of each sample was computed according to the formula mentioned below. The smaller the retention, the larger the reduction in absorption, which is preferable.
Retention of Absorbance (%)=A/B×100
as §2, §3
For `CC(C)c1ccc2cnncc2c1` [6-isopropylphthalazine], the “Silver Iodide Absorption Retention (%)” value was “more effective than phthalazine”. With `c1ccc2cnncc2c1` [phthalazine, Phthalazine] the “Silver Iodide Absorption Retention (%)” value was “effective for reducing the absorption intensity”.

Assay: not given
Settings: Hammett's substituent constants of Y11 to Y14; constants from Chemical Review, 1991, Vol. 91; cited from earlier work
For `Cc1cccc2c(=O)[nH]ncc12` [Sample I-1], the “Total Sum of σ p” value is listed as −0.17. For `Cc1ccc2c(=O)[nH]ncc2c1` [Sample I-2], the “Total Sum of σ p” value is listed as −0.17. For `Cc1ccc2cn[nH]c(=O)c2c1` [Sample I-3], the “Total Sum of σ p” value is given as −0.17. In the case of `Cc1cccc2cn[nH]c(=O)c12` [Sample I-4], the “Total Sum of σ p” value is given as −0.17. In the case of `CCc1cccc2c(=O)[nH]ncc12` [Sample I-5], the “Total Sum of σ p” value is given as −0.15. In the case of `CCc1ccc2c(=O)[nH]ncc2c1` [Sample I-6], the “Total Sum of σ p” value is given as −0.15. In the case of `CCc1ccc2cn[nH]c(=O)c2c1` [Sample I-7], the “Total Sum of σ p” value is listed as −0.15. For `CCc1cccc2cn[nH]c(=O)c12` [Sample I-8], the “Total Sum of σ p” value is given as −0.15. For `CCCc1ccc2c(=O)[nH]ncc2c1` [Sample I-9], the “Total Sum of σ p” value is given as −0.13. In the case of `CCCc1cccc2c(=O)[nH]ncc12` [Sample I-10], the “Total Sum of σ p” value is listed as −0.13. For `CCCc1ccc2cn[nH]c(=O)c2c1` [Sample I-11], the “Total Sum of σ p” value is given as −0.13. For `CCCc1cccc2cn[nH]c(=O)c12` [Sample I-12], the “Total Sum of σ p” value is given as −0.13. In the case of `CC(C)c1ccc2c(=O)[nH]ncc2c1` [Sample I-13], the “Total Sum of σ p” value is given as −0.15. In the case of `CCCCc1ccc2c(=O)[nH]ncc2c1` [Sample I-14], the “Total Sum of σ p” value is given as −0.16. For `O=c1[nH]ncc2cc(-c3ccccc3)ccc12` [Sample I-15], the “Total Sum of σ p” value is given as −0.01. For `CC(C)Cc1ccc2c(=O)[nH]ncc2c1` [Sample I-16], the “Total Sum of σ p” value is given as −0.12. In the case of `CC(C)(C)c1ccc2c(=O)[nH]ncc2c1` [Sample I-17], the “Total Sum of σ p” value is given as −0.20. For `Cc1cc2cn[nH]c(=O)c2cc1C` [Sample I-18], the “Total Sum of σ p” value is listed as −0.34. In the case of `Cc1ccc2c(=O)[nH]ncc2c1C` [Sample I-19], the “Total Sum of σ p” value is given as −0.34. In the case of `Cc1cc2c(=O)[nH]ncc2c(C)c1C` [Sample I-20], the “Total Sum of σ p” value is given as −0.51. For `CCc1cc2cn[nH]c(=O)c2cc1C` [Sample I-21], the “Total Sum of σ p” value is listed as −0.32. For `CC(C)c1ccc2cn[nH]c(=O)c2c1` [Sample I-22], the “Total Sum of σ p” value is given as −0.15. In the case of `CCCCc1ccc2cn[nH]c(=O)c2c1` [Sample I-23], the “Total Sum of σ p” value is given as −0.16. For `CCC(C)c1ccc2cn[nH]c(=O)c2c1` (stereo not shown) [Sample I-24], the “Total Sum of σ p” value is listed as −0.12. In the case of `CC(C)Cc1ccc2cn[nH]c(=O)c2c1` [Sample I-25], the “Total Sum of σ p” value is listed as −0.12. For `COc1cccc2c(=O)[nH]ncc12` [Sample I-26], the “Total Sum of σ p” value is given as −0.27. In the case of `COc1ccc2c(=O)[nH]ncc2c1` [Sample I-27], the “Total Sum of σ p” value is given as −0.27. In the case of `COc1ccc2cn[nH]c(=O)c2c1` [Sample I-28], the “Total Sum of σ p” value is given as −0.27. In the case of `COc1cccc2cn[nH]c(=O)c12` [Sample I-29], the “Total Sum of σ p” value is listed as −0.27. In the case of `CCOc1cccc2c(=O)[nH]ncc12` [Sample I-30], the “Total Sum of σ p” value is given as −0.24. For `CCOc1ccc2c(=O)[nH]ncc2c1` [Sample I-31], the “Total Sum of σ p” value is given as −0.24. For `CCOc1ccc2cn[nH]c(=O)c2c1` [Sample I-32], the “Total Sum of σ p” value is listed as −0.24. For `CCOc1cccc2cn[nH]c(=O)c12` [Sample I-33], the “Total Sum of σ p” value is listed as −0.24. In the case of `CCCOc1cccc2c(=O)[nH]ncc12` [Sample I-34], the “Total Sum of σ p” value is listed as −0.32. For `CCCOc1ccc2c(=O)[nH]ncc2c1` [Sample I-35], the “Total Sum of σ p” value is given as −0.32. For `CCCOc1ccc2cn[nH]c(=O)c2c1` [Sample I-36], the “Total Sum of σ p” value is listed as −0.32. For `CCCOc1cccc2cn[nH]c(=O)c12` [Sample I-37], the “Total Sum of σ p” value is given as −0.32. For `CC(C)Oc1ccc2c(=O)[nH]ncc2c1` [Sample I-38], the “Total Sum of σ p” value is listed as −0.33. In the case of `CCCCOc1ccc2c(=O)[nH]ncc2c1` [Sample I-39], the “Total Sum of σ p” value is given as −0.34. In the case of `COc1cc2cn[nH]c(=O)c2cc1OC` [Sample I-40], the “Total Sum of σ p” value is given as −0.54. In the case of `COc1ccc2c(=O)[nH]ncc2c1OC` [Sample I-41], the “Total Sum of σ p” value is given as −0.54. In the case of `COc1cc2c(=O)[nH]ncc2c(OC)c1OC` [Sample I-42], the “Total Sum of σ p” value is given as −0.81. For `O=c1[nH]ncc2cc(Oc3ccccc3)ccc12` [Sample I-47], the “Total Sum of σ p” value is given as −0.03. In the case of `O=c1[nH]ncc2ccc(Oc3ccccc3)cc12` [Sample I-48], the “Total Sum of σ p” value is listed as −0.03. In the case of `CCN(CC)c1ccc2c(=O)[nH]ncc2c1` [Sample I-59], the “Total Sum of σ p” value is given as −0.72. For `Nc1ccc2c(=O)[nH]ncc2c1` [Sample I-60], the “Total Sum of σ p” value is listed as −0.66. For `CC(=O)Nc1ccc2c(=O)[nH]ncc2c1` [Sample I-61], the “Total Sum of σ p” value is listed as 0.00. For `O=C(Nc1ccc2c(=O)[nH]ncc2c1)c1ccccc1` [Sample I-62], the “Total Sum of σ p” value is listed as −0.19. In the case of `O=c1[nH]ncc2cc(NS(=O)(=O)c3ccccc3)ccc12` [Sample I-65], the “Total Sum of σ p” value is given as 0.01. For `CC(=O)Oc1ccc2cn[nH]c(=O)c2c1` [Sample I-69], the “Total Sum of σ p” value is given as 0.31. In the case of `CN(C)c1ccc2cn[nH]c(=O)c2c1` [Sample I-74], the “Total Sum of σ p” value is listed as −0.83.
